Experimental data as given in patent publication US7855174B2 (priority 2007, dated 2010).
pEC50: −log10 of the molar value. Where two headings read alike, the source gives them in different places.

Experiments:
[1] = tested on: rat mesenteric arteries; experiment: tissue or blood
[2] = tested on: MLC; design: species or system rat

Molecule `NC[C@H](O)c1ccc(O)c(O)c1` [NE, norepinephrine] has a pEC50 ([1]; read-out: EC50 of concentration-contraction relationship) of 5.96, a pEC50 ([1]; read-out: apparent EC50 for NE (contraction)) of 7.47 and a pEC50 ([1]; read-out: approximate EC50 in isolated vessels) of ~6.00. The “change of Ser19 pMLC and total pMLC with concentration” value [2] was “increases in both total pMLC and Ser19 pMLC”.
